The supplement of paper PMC10307832

Assays:
Experiment in all cases: relative viability (nuclei count vs DMSO), 5 days (fraction); higher = more cells survive
Apatinib + Tozasertib = compound: N#CC1(c2ccc(NC(=O)c3cccnc3NCc3ccncc3)cc2)CCCC1 [Apatinib] + Cc1cc(Nc2cc(N3CCN(C)CC3)nc(Sc3ccc(NC(=O)C4CC4)cc3)n2)n[nH]1 [Tozasertib] (partner 0.1 µM)
In short: (§1)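 Nuclei were stained with Hoechst during a one-step fixation (final 0.05% Triton X-100, 1% formaldehyde, 1 ug/ml Hoechst) carried out 5 days after dosing, then counted on 4× images. The cells, lung cancer lines in 1536-well plates, had been dosed by pin tool the day after seeding with one drug alone or a fixed anchor-drug dose plus five library-drug doses (not always all listed) in √10 steps. Relative viability is the nuclei count in treated wells divided by that in vehicle wells, and each value is the median of duplicate plates.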

Metformin + Decitabine = compound: CN(C)C(=N)NC(=N)N [Metformin] + Nc1ncn([C@H]2C[C@H](O)[C@@H](CO)O2)c(=O)n1 [Decitabine] (partner 2 µM)
In short: as §1

Metformin + Crizotinib = compound: CN(C)C(=N)NC(=N)N [Metformin] + C[C@@H](Oc1cc(-c2cnn(C3CCNCC3)c2)cnc1N)c1c(Cl)ccc(F)c1Cl [Crizotinib] (partner 1 µM)
In short: as §1

Apatinib + Vorinostat = compound: N#CC1(c2ccc(NC(=O)c3cccnc3NCc3ccncc3)cc2)CCCC1 [Apatinib] + O=C(CCCCCCC(=O)Nc1ccccc1)NO [Vorinostat] (partner 1 µM)
In short: as §1

Cell Line | relative viability (Apatinib + Tozasertib; first compound 0.08 µM) | relative viability (Apatinib + Tozasertib; first compound 0.253 µM) | relative viability (Apatinib + Tozasertib; first compound 0.8 µM) | relative viability (Apatinib + Tozasertib; first compound 2.53 µM) | relative viability (Apatinib + Tozasertib; first compound 8 µM) | relative viability (Metformin + Decitabine; first compound 10 µM) | relative viability (Metformin + Decitabine; first compound 31.62 µM) | relative viability (Metformin + Decitabine; first compound 100 µM) | relative viability (Metformin + Decitabine; first compound 316.23 µM) | relative viability (Metformin + Decitabine; first compound 1000 µM) | relative viability (Metformin + Crizotinib; first compound 10 µM) | relative viability (Metformin + Crizotinib; first compound 31.62 µM) | relative viability (Metformin + Crizotinib; first compound 100 µM) | relative viability (Metformin + Crizotinib; first compound 316.23 µM) | relative viability (Metformin + Crizotinib; first compound 1000 µM) | relative viability (Apatinib + Vorinostat; first compound 0.08 µM) | relative viability (Apatinib + Vorinostat; first compound 0.253 µM) | relative viability (Apatinib + Vorinostat; first compound 0.8 µM) | relative viability (Apatinib + Vorinostat; first compound 2.53 µM) | relative viability (Apatinib + Vorinostat; first compound 8 µM)
NCI-H2126 | 0.953 | 0.861 | 0.797 | 0.709 | 0.607 | 0.554 | 0.592 | 0.557 | 0.571 | 0.562 | 0.863 | 0.946 | 0.957 | 0.908 | 0.956 | 0.86 | 0.717 | 0.671 | 0.768 | 0.755
NCI-H520 | 0.445 | 0.427 | 0.437 | 0.409 | 0.417 | 0.463 | 0.447 | 0.461 | 0.423 | 0.485 | 0.804 | 0.75 | 0.803 | 0.752 | 0.606 | 0.77 | 0.736 | 0.708 | 0.672 | 0.452
HCC-366 | 0.11 | 0.0735 | 0.0616 | 0.0574 | 0.0476 | 0.288 | 0.293 | 0.306 | 0.291 | 0.289 | 0.608 | 0.502 | 0.532 | 0.398 | 0.709 | 0.437 | 0.386 | 0.329 | 0.205 | 0.193
EMC-BAC-2 | 0.334 | 0.307 | 0.245 | 0.229 | 0.194 | 0.844 | 1.02 |  | 0.855 | 0.861 | 0.731 | 0.8 | 0.828 | 0.702 | 0.805 |  | 0.51 | 0.432 | 0.29 | 0.362
NCI-H647 | 0.288 | 0.503 | 0.19 | 0.144 | 0.206 | 0.316 | 0.366 | 0.381 |  | 0.434 | 0.982 | 1.02 | 0.955 | 0.939 | 0.942 | 0.596 | 0.868 | 0.473 | 0.669 | 0.343
NCI-H1944 | 0.23 | 0.229 | 0.239 | 0.238 | 0.223 | 0.361 | 0.381 | 0.437 | 0.401 | 0.453 | 1.06 | 1.29 | 1.26 | 1.11 | 1.12 | 0.519 | 0.526 | 0.454 | 0.422 | 0.419
SK-MES-1 | 0.972 | 0.928 | 0.729 | 0.77 | 0.484 | 0.336 | 0.291 | 0.342 | 0.34 | 0.361 | 0.884 | 0.893 | 0.925 | 0.784 | 0.932 | 1.18 | 1.14 | 1.04 | 0.961 | 0.928
EPLC-272H | 0.28 |  | 0.248 | 0.18 | 0.144 | 0.383 | 0.415 | 0.426 | 0.38 | 0.507 | 1.07 | 1.03 | 0.874 | 0.918 | 1.06 | 0.532 | 0.372 | 0.396 | 0.346 | 0.256
